One compound from patent US8668937B2, “Topical nitric oxide systems and methods of use thereof” (Transdermal Biotechnology, Inc., priority 2011, dated 2014) can be followed below.

The nature of this data set: Nitric oxide gas bubbled through carrier, change in weight noted. Type of data set: physicochemical. To be noted: 25 °C. The procedure: This example illustrates one technique for preparing a composition in accordance with one embodiment of the invention. An accurate amount of a carrier (HNC 167-62) (see below) was introduced into a system. The carrier weight used in these experiments was approximately 250 g and the vessel size was 500 ml. The vessel was equipped with a mechanical stirrer, gas inlet, and gas outlet and was previously purged with argon for about an hour. The temperature of the carrier was kept at about 25-30° C. NO gas regulated at 5 psi (1 psi is about 6,900 Pa) and was then introduced at a controlled rate of about 1 bubble/s with continuous stirring. […] After 6 hours, the weight of the carrier had increased by 0.15%, by 12 hours by 0.25%, and by 24 hours by 0.56%. These increases in weight were believed to be significant considering the relative small molecular weight of NO versus the carrier. […] The carrier also can solidify upon cooling if the carrier is initially a solid at lower temperature.
Each carrier was taken in a 500 mL three necked flask equipped with a mechanical stirrer, gas inlet and a gas outlet. The system was purged with argon for one hour at room temperature (25° C.). Then nitric oxide gas was bubbled into the system. Then, nitric oxide gas was bubbled through carrier for stipulated amount of time. The changes in weight and color were noted. The details of individual experiments were as follows.

Entries after “also recorded” stand apart in the source; their conditions may differ.

For the compound `OCCCO` [1,3-Propanediol, 1,3-propanediol], for the setting “NO gas bubbled 40 hr”, the “% Wt. gain” value came to 0.09% and the “Wt. Gain g” value is recorded as 0.16 g. Moreover, the “weight gain when NO was passed through (in words)” value (neat, NO gas bubbled 40 hours) is on record as “only negligible, if any, weight gain; also recorded: failed to gain any significant weight”.
